# From paper PMC4177882, “Inactivation and Unfolding of Protein Tyrosine Phosphatase from Thermus thermophilus HB27 during Urea and Guanidine Hydrochloride Denaturation” (PLoS ONE, 2014)
# Where a name gives a salt, the structure may show the parent alone.
# Biological target: T1, protein tyrosine phosphatase (PTPase) from Thermus thermophilus HB27 (Thermus thermophilus, UniProt Q72JF6)
# T1 construct: gene TT_C0816; recombinant, expressed in E. coli BL21(DE3), purified to homogeneity; low molecular weight PTPase, CX5R(S/T) P-loop with Cys11; monomer in solution
# T1 sequence (Q72JF6 entry or part of it): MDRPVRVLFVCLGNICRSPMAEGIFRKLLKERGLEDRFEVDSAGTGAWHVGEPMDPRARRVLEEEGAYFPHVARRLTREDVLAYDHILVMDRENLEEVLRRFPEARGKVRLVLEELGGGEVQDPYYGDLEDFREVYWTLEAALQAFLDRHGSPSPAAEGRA
# Experiment: phosphatase activity, absorbance at […] nm
# Type: biochemical
smiles,measurement,value
N=C(N)N [guanidine hydrochloride],Ki,270 µM
